pKi: −log10 of the molar value.
The compounds below were run against human recombinant GABAA α5β3γ2 receptor (Homo sapiens (Human), UniProt P18507+P31644) (assay: Radioligand ([3H]Ro151788) receptor binding assay). Settings: membranes of HEK cells expressing human recombinant GABAA α5β3γ2; 0.5 nM [3H]Ro151788; 60 minutes at 4° C.; read-out: hGABAA α5 Ki.
Chain of human recombinant GABAA α5β3γ2 receptor (P31644 32-462): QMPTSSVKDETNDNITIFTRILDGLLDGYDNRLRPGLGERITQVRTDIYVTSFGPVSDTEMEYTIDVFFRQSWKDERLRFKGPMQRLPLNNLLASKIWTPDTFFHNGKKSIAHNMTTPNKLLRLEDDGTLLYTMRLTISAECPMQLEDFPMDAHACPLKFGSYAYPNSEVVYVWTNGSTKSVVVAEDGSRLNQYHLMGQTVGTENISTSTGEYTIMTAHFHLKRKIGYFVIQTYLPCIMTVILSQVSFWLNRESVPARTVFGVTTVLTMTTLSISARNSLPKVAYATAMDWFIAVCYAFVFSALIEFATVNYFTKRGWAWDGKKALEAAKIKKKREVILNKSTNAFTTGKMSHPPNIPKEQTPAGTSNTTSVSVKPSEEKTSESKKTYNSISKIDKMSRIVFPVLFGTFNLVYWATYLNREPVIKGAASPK
Chain of human recombinant GABAA α5β3γ2 receptor (P28472 26-473 partner): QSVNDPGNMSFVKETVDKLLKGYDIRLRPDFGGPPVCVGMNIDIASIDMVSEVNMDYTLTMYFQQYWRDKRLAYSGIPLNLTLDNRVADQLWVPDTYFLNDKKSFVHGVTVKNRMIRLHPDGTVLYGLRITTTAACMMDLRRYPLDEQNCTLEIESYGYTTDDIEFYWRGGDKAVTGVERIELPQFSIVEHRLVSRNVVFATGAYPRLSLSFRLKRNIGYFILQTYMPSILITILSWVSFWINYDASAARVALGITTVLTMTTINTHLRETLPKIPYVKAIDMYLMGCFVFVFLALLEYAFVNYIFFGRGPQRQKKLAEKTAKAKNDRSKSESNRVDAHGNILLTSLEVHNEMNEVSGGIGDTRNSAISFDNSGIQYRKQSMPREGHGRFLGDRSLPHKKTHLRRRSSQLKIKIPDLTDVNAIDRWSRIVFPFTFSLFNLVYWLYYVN
Chain of human recombinant GABAA α5β3γ2 receptor (P18507 40-475): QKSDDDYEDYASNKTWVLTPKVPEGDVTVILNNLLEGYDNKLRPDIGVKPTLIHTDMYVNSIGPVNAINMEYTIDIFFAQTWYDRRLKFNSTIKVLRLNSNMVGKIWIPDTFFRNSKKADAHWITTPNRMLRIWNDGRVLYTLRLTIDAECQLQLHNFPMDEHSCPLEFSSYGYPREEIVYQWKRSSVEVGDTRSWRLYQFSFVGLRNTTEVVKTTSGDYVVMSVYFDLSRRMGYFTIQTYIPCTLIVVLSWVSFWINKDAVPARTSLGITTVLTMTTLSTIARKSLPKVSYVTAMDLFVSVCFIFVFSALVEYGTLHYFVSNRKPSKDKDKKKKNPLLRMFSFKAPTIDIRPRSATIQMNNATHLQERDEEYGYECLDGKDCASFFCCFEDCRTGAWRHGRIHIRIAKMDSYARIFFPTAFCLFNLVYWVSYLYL
Experimental: The GABAA α5β3γ2 protein used for the receptor binding assay was derived from membranes produced from HEK cells (Millipore CYL3073) expressing the human recombinant GABAA α5β3γ2 receptor. Cells were stored and cultured in-house according to the instructions provided by the vendor (Millipore). Cell pellet was homogenized in 10 times modified Krebs Henseleit buffer (membrane preparation buffer): 20 mM Tris, 120 mM NaCl, 100 mM KCl, 25 mM CaCl2 and 25 mM MgCl2 pH=7.4 at 4° C. using Ultra Turrax (Janke&Kunkel) maximal speed for 15 seconds. The homogenate was centrifuged at 40,000 g for 30 minutes at 4° C. Supernatant was discarded and the resulting pellet was washed in membrane preparation buffer. Pellet was resuspended in membrane preparation buffer and aliquots of 1.4 mL ampules were stored at −70° C. until use.
Receptor binding assays were performed in 96-well format in deep-well plates. For each 96-well plate one ampule of membrane homogenate was thawed and diluted in binding buffer (50 mM Tris pH=7.4, 100 mM KCl) and 200 μL was dispensed into each well. Radioligand [^3H]Ro151788 (Perkin Elmer: NET757250UC) was prepared in binding buffer and added to each well in 50 μL volume to give final concentration of 0.5 nM. Test compounds in suitable concentration(s) were added in additional 50 μL. The final assay volume was 300 μL. Incubation was carried out for 60 minutes at 4° C. For non-specific binding 10 μM unlabeled diazepam was used. After incubation samples were filtered over UniFilter® GF/BT using Filtermate Harvester (Perkin Elmer) and washed with 5×1 mL binding buffer. The plate was dried at 40° C. for an hour and 40 μL Microscint (Perkin Elmer) scintillation cocktail was added to each well. The plate was read in Microbeta (Perkin Elmer).
The specific radioligand binding (SB) was defined as the difference between total binding (Tot) and the non-specific binding (NSB). Results are expressed as a percent inhibition of specific binding obtained in the presence of compound of interest.
For IC50 and Ki determination a minimum of six drug concentrations in triplicate were used. IC50 values (i.e. concentration of compound giving 50% inhibition of specific binding) were calculated from concentration-displacement curves by sigmoidal fitting using Origin 7.5 software. Ki values (i.e. inhibition constants) were calculated using the Cheng-Prusoff equation Ki=IC50/[1+(L/KD)], where [L] is the radioligand concentration and KD the affinity of the labelled ligand for receptor. KD was determined from the Saturation analyses.
Cc1ccc(-c2noc(C)c2COc2cc3c(cn2)CN(C(=O)C2CCC(=O)N(C)C2)CC3)cn1 (stereo not shown) [Example 20, 1-methyl-5-(6-{[5-methyl-3-(6-methylpyridin-3-yl)-1,2-oxazol-4-yl]methoxy}-1,2,3,4-tetrahydro-2,7-naphthyridine-2-carbonyl)piperidin-2-one] was tested, and the pKi was 8.05. With Cc1ccc(-c2noc(C)c2COc2cc3c(cn2)CN(C(=O)c2ccncc2)CC3)cn1 [Example 9, 6-{[5-methyl-3-(6-methylpyridin-3-yl)-1,2-oxazol-4-yl]methoxy}-2-(pyridine-4-carbonyl)-1,2,3,4-tetrahydro-2,7-naphthyridine] the pKi was 8.00. Cc1ccc(-c2noc(C)c2COc2cc3c(cn2)CN(C(=O)C2CCOC2)CC3)cn1 (stereo not shown) [Example 12, 6-{[5-methyl-3-(6-methylpyridin-3-yl)-1,2-oxazol-4-yl]methoxy}-2-(oxolane-3-carbonyl)-1,2,3,4-tetrahydro-2,7-naphthyridine] was tested, and the pKi was 8.14. Compound Cc1ccc(-c2noc(C)c2COc2cc3c(nn2)CN(C(=O)C(C)C)CC3)cn1 [Example 31, 2-methyl-1-(3-{[5-methyl-3-(6-methylpyridin-3-yl)-1,2-oxazol-4-yl]methoxy}-5H,6H,7H,8H-pyrido[3,4-c]pyridazin-7-yl)propan-1-one] has a pKi of 8.37. For Cc1ccc(-n2nnc(C)c2COc2cc3c(cn2)CN(C(=O)C2CC2)CC3)cn1 [Example 44, 2-cyclopropanecarbonyl-6-{[4-methyl-1-(6-methylpyridin-3-yl)-1H-1,2,3-triazol-5-yl]methoxy}-1,2,3,4-tetrahydro-2,7-naphthyridine], the pKi was 7.66. For CCC(=O)N1CCc2cc(OCc3c(C)nnn3-c3ccc(C(F)(F)F)nc3)ncc2C1 [Example 48, 1-[6-({4-methyl-1-[6-(trifluoromethyl)pyridin-3-yl]-1H-1,2,3-triazol-5-yl}methoxy)-1,2,3,4-tetrahydro-2,7-naphthyridin-2-yl]propan-1-one], the pKi was 7.48. CC(=O)N1CCc2cc(OCc3c(C)nnn3-c3ccc(C)nc3)ncc2C1 [Example 37, 1-(6-{[4-methyl-1-(6-methylpyridin-3-yl)-1H-1,2,3-triazol-5-yl]methoxy}-1,2,3,4-tetrahydro-2,7-naphthyridin-2-yl)ethan-1-one] was tested, and the pKi was 8.10. In the case of CC(=O)N1CCc2cc(OCc3c(-c4ccc(C(F)(F)F)nc4)noc3C)ncc2C1 [Example 4, 1-[6-({5-methyl-3-[6-(trifluoromethyl)pyridin-3-yl]-1,2-oxazol-4-yl}methoxy)-3,4-dihydro-2,7-naphthyridin-2(1H)-yl]ethanone], the pKi was 8.01. In the case of Cc1ccc(-c2noc(C)c2COc2cc3c(cn2)CN(C(=O)c2cccnc2)CC3)cn1 [Example 7, 6-{[5-methyl-3-(6-methylpyridin-3-yl)-1,2-oxazol-4-yl]methoxy}-2-(pyridine-3-carbonyl)-1,2,3,4-tetrahydro-2,7-naphthyridine], the pKi was 8.22. CC(=O)N1CCc2cc(OCc3c(-c4ccc(C)nc4)nnn3C)ncc2C1 [Example 60, 1-(6-{[1-methyl-4-(6-methylpyridin-3-yl)-1H-1,2,3-triazol-5-yl]methoxy}-1,2,3,4-tetrahydro-2,7-naphthyridin-2-yl)ethan-1-one] gave a pKi of 7.66.
